How the values were obtained:
[1] = Antiproliferative activity in MCF-7 human breast cancer cells; format: functional, cell-based, MCF7
[2] = Antiproliferative activity in MDA-MB 231 human breast cancer cells; format: functional, cell-based, Cancer cell lines
[3] = Lipophilicity was reported; format: physicochemical; settings: human, octanol/water
[4] = test system: Glutathione reductase (Homo sapiens); assay: Percentage influence on cellular glutathione reductase activity
Cancer cell lines [5] = assay: Content in MDA-MB 231 human breast cancer cell nuclei was reported; format: functional, cell-based
Cancer cell lines [6] = assay: Percentage of content in MCF-7 human breast cancer cell nuclei was reported; format: functional, cell-based
Cancer cell lines [7] = assay: Percentage of content in MDA-MB 231 human breast cancer cell nuclei was reported; format: functional, cell-based
Cancer cell lines [8] = assay: Content in MCF-7 human breast cancer cell nuclei was reported; format: functional, cell-based
Nucleic Acid = assay: DNA-binding efficacy; format: nucleic-acid assay
[9] = Homo sapiens, Cancer cell lines

| Molecule | IC50 ([1]; Homo sapiens, MCF7) [µM] | IC50 [2, 9] [µM] | IC50 ([1]; mcf7) [µM] | IC50 ([2]; cancer cell lines) [µM] | other results |
| --- | --- | --- | --- | --- | --- |
| N[C@@H](Cc1ccc(N(CCCl)CCCl)cc1)C(=O)O | 5.7 | 3.9 | – | – | – |
| O=c1[nH]cc(F)c(=O)[nH]1 [FLUOROURACIL] | 4.8 | 9.6 | – | – | – |
| CISPLATIN | – | – | 2 | 4 | – |
| Co-ASS [listing 1 of 2 here] | – | – | 1.4 | 1.9 | Log Kw [3]: 4.91 |
| Co-ASS [listing 2 of 2 here] | – | – | – | – | Activity [4]: 93%; Activity (Cancer cell lines [5]): 0.22 pmol/µg; Activity (Cancer cell lines [6]): 0.8%; Activity (Cancer cell lines [7]): 5%; Activity (Cancer cell lines [8]): 0.12 pmol/µg; Activity (Nucleic Acid): 9.82 pmol/µg |

— ChEMBL document CHEMBL1141875, “Antitumor-active cobalt-alkyne complexes derived from acetylsalicylic acid: studies on the mode of drug action” (J Med Chem, 2005)
